What was measured:
[1] = molecular target: pendrin (ssPendrin, SLC26A4) (Sus scrofa, UniProt A0A480E679, Q101L/T224A); assay: inhibition of […]-HCO3- uptake in proteoliposomes of purified mutant; type: biochemical
[2] = molecular target: pendrin (ssPendrin, SLC26A4) (Sus scrofa, UniProt A0A480E679, Q101L); assay: as above; type: biochemical
[3] = molecular target: T1, pendrin (ssPendrin, SLC26A4) (Sus scrofa, UniProt A0A480E679); assay: cryo-EM structure at […] Å; inhibition of […]-HCO3- uptake in proteoliposomes of purified protein; type: biochemical
T1 construct: C-terminal TEV site and 8x His-tag
T1 sequence (A0A480E679 1-780): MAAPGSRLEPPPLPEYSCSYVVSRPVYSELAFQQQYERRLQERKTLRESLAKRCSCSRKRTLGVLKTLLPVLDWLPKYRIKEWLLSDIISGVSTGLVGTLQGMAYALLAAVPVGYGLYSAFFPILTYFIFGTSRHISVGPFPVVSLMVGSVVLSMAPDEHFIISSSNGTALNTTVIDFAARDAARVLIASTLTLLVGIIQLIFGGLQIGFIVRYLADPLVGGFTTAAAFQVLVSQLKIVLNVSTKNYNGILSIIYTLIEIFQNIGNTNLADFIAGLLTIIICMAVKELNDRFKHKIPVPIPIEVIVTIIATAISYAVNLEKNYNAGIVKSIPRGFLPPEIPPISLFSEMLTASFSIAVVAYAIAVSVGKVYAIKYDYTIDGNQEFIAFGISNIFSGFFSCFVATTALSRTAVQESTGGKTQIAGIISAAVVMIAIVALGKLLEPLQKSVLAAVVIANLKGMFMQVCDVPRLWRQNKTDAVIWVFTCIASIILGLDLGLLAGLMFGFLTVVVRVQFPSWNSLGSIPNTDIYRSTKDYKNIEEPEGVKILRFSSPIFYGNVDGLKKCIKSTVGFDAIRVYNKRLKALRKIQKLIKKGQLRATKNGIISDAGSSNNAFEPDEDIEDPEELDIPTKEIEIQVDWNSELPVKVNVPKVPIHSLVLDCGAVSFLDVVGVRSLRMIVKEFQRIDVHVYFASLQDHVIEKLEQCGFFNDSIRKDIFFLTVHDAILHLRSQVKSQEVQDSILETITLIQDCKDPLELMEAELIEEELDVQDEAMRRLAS

[4] = molecular target: pendrin (ssPendrin, SLC26A4) (Sus scrofa, UniProt A0A480E679, T224V); assay: inhibition of […]-HCO3- uptake in proteoliposomes of purified mutant; type: biochemical
Sequence of pendrin (ssPendrin, SLC26A4) (Sus scrofa, UniProt A0A480E679, T224V) (A0A480E679 entry or part of it T224V): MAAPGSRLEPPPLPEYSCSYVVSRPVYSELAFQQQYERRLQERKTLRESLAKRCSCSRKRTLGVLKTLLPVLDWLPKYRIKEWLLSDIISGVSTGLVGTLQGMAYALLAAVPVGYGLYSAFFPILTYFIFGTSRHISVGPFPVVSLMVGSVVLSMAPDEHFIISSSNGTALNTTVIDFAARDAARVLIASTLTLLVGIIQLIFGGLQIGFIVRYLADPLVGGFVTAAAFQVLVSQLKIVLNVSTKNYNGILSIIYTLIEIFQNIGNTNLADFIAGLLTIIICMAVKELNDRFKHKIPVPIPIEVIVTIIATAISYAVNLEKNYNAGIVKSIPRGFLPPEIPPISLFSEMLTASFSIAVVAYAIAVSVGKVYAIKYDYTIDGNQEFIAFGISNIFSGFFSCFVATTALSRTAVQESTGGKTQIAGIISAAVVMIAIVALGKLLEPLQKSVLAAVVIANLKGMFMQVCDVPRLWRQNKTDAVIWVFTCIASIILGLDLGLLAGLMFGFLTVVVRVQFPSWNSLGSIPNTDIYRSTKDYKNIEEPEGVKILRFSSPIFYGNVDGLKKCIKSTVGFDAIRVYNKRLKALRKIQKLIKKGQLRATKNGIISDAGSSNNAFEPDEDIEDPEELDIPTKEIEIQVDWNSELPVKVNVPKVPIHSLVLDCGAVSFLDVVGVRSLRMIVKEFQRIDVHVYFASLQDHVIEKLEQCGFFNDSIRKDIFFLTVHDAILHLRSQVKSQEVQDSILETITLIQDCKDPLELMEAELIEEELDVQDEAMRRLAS

[5] = molecular target: pendrin from Sus scrofa (ssPendrin) (Sus scrofa); assay: cryo-EM structure; purified ssPendrin in 20 mM HEPES pH 7.5, 2 mM BME, 0.02% GDN with 150 mM NaCl, NaI, NaHCO3 or Na gluconate, or 150 mM NaCl and 10 mM NFA; refined with C2 symmetry

Sequence of pendrin (ssPendrin, SLC26A4) (Sus scrofa, UniProt A0A480E679, Q101L) (A0A480E679 entry or part of it Q101L): as the sequence (A0A480E679 entry or part of it T224V) above, with Q101L, V224T counted along it
Sequence of pendrin (ssPendrin, SLC26A4) (Sus scrofa, UniProt A0A480E679, Q101L/T224A) (A0A480E679 entry or part of it Q101L/T224A): as the sequence (A0A480E679 entry or part of it T224V) above, with Q101L, V224A counted along it

`O=C(O)c1cccnc1Nc1cccc(C(F)(F)F)c1` [NFA, niflumic acid] showed an IC50 [1] of 16.3 µM, an IC50 [2] of 31.2 µM and an IC50 [3] of 15.5 ± 1.5 µM. For the same molecule, the IC50 [4] was 9.5 µM.

For “pendrin from Sus scrofa (ssPendrin) (natural protein)”, the stoichiometry N [5] was 2.

Reference: article PMC10771415, “Mechanism of anion exchange and small-molecule inhibition of pendrin” (Nature Communications, 2024)
